What was measured:
[1] = tested on: Colletotrichum capsici; test: Colletotrichum capsici (anthracnose) in vitro test, radial growth on potato dextrose agar; assay type: cell-based; conditions: Colletotrichum truncatum, 168 h; 300 ppm in potato dextrose agar; 25° C., 60% relative humidity, seven days; read-out: control compared to the untreated check (radial growth)
[2] = tested on: Rhizoctonia solani; test: Rhizoctonia solani (rice sheath blight/potato black scurf) in vitro test, radial growth on potato dextrose agar; assay type: cell-based; conditions: 168 h, 300 ppm in potato dextrose agar, 25° C., 60% relative humidity, seven days, read-out: control compared to the untreated check (radial growth)
[3] = tested on: Pyricularia oryzae; test: microbe, parasite or virus in culture; assay type: cell-based; conditions: 168 h, read-out: control compared to the untreated check (radial growth)
[4] = tested on: Septoria lycopersici/Corynespora cassicola (CORYCA); test: Septoria lycopersici/Corynespora cassicola (CORYCA) (leaf spot of tomato) in vitro test, radial growth on potato dextrose agar; assay type: cell-based; conditions: 168 h, 300 ppm in potato dextrose agar, 25° C., 70% relative humidity, seven days, read-out: control compared to the untreated check (radial growth)
[5] = tested on: Botrytis cinerea; test: Botrytis cinerea (gray mold) in vitro test, radial growth on potato dextrose agar; assay type: cell-based; conditions: 168 h, 300 ppm in potato dextrose agar, 22° C., 90% relative humidity, seven days, read-out: control compared to the untreated check (radial growth)
[6] = tested on: Alternaria solani; test: Alternaria solani (early blight of tomato/potato) in vitro test, radial growth on potato dextrose agar; assay type: cell-based; conditions: 168 h, 300 ppm in potato dextrose agar, 25° C., 60% relative humidity, seven days, read-out: control compared to the untreated check (radial growth)
[7] = tested on: Phakopsora pachyrhizi; test: Phakopsora pachyrhizi test in soybean, preventive, in vivo on plants; conditions: in Glycine max, read-out: Efficacy (% control), disease severity compared to the untreated check

CCN(C)C=Nc1cc(F)cc(Nc2ccccc2F)c1C [Compound 19, N-ethyl-N′-(5-fluoro-3-((2-fluorophenyl)amino)-2-methylphenyl)-N-methylformimidamide]
≥ 70%: inhibition of growth at 300 ppm [1] | inhibition of growth at 300 ppm [2] | inhibition of growth at 300 ppm [3] | inhibition of growth at 300 ppm [4] | inhibition of growth at 300 ppm [5] | inhibition of growth at 300 ppm [6]

CCN(C)C=Nc1cc(C)cc(Nc2ccccc2C)c1Cl [Compound 24, N′-(2-chloro-5-methyl-3-(o-tolylamino)phenyl)-N-ethyl-N-methylformimidamide]
≥ 70%: inhibition of growth at 300 ppm [1] | inhibition of growth at 300 ppm [2] | inhibition of growth at 300 ppm [3] | inhibition of growth at 300 ppm [4] | inhibition of growth at 300 ppm [5] | inhibition of growth at 300 ppm [6]

CCN(C)C=Nc1cc(C)cc(Nc2ccccc2F)c1Cl [Compound 23, N′-(2-chloro-3-((2-fluorophenyl)amino)-5-methylphenyl)-N-ethyl-N-methylformimidamide]
≥ 70%: inhibition of growth at 300 ppm [1] | inhibition of growth at 300 ppm [2] | pest or weed control at 500 ppm [7] | inhibition of growth at 300 ppm [3] | inhibition of growth at 300 ppm [4] | inhibition of growth at 300 ppm [6]

CCN(C)C=Nc1cc(Cl)cc(N(C)c2cnccn2)c1C [Compound 213, N′-(5-chloro-2-methyl-3-(methyl(pyrazin-2-yl)amino)phenyl)-N-ethyl-N-methylformimidamide]
≥ 70%: inhibition of growth at 300 ppm [1] | inhibition of growth at 300 ppm [2] | inhibition of growth at 300 ppm [3] | inhibition of growth at 300 ppm [4] | inhibition of growth at 300 ppm [5] | inhibition of growth at 300 ppm [6]

CCN(C)C=Nc1cc(Cl)cc(Cc2ccc(Cl)c(F)c2)c1C [Compound 131, N′-(5-chloro-3-(4-chloro-3-fluorobenzyl)-2-methylphenyl)-N-ethyl-N-methylformimidamide]
≥ 70%: inhibition of growth at 300 ppm [1] | inhibition of growth at 300 ppm [2] | pest or weed control at 500 ppm [7] | inhibition of growth at 300 ppm [3] | inhibition of growth at 300 ppm [4] | inhibition of growth at 300 ppm [6]

CCN(C)C=Nc1cc(F)cc(Nc2ccccc2C)c1C [Compound 15, N-ethyl-N′-(5-fluoro-2-methyl-3-(o-tolylamino)phenyl)-N-methylformimidamide]
≥ 70%: inhibition of growth at 300 ppm [1] | inhibition of growth at 300 ppm [2] | inhibition of growth at 300 ppm [3] | inhibition of growth at 300 ppm [4] | inhibition of growth at 300 ppm [5] | inhibition of growth at 300 ppm [6]

CCN(C)C=Nc1cc(F)cc(Nc2cc(F)cc(Cl)c2)c1C [Compound 96, N′-(3-((3-chloro-5-fluorophenyl)amino)-5-fluoro-2-methylphenyl)-N-ethyl-N-methylformimidamide]
≥ 70%: inhibition of growth at 300 ppm [1] | inhibition of growth at 300 ppm [2] | inhibition of growth at 300 ppm [3] | inhibition of growth at 300 ppm [4] | inhibition of growth at 300 ppm [5] | inhibition of growth at 300 ppm [6]

CCN(C)C=Nc1cc(C)cc(Cc2cccc(F)c2)c1Br [Compound 189, N′-(2-bromo-3-(3-fluorobenzyl)-5-methylphenyl)-N-ethyl-N-methylformimidamide]
≥ 70%: inhibition of growth at 300 ppm [1] | inhibition of growth at 300 ppm [2] | pest or weed control at 500 ppm [7] | inhibition of growth at 300 ppm [3] | inhibition of growth at 300 ppm [4] | inhibition of growth at 300 ppm [6]

CCN(C)C=Nc1cc(F)cc(Nc2cc(C)ccc2Cl)c1C [Compound 113, N′-(3-((2-chloro-5-methylphenyl)amino)-5-fluoro-2-methylphenyl)-N-ethyl-N-methylformimidamide]
≥ 70%: inhibition of growth at 300 ppm [1] | inhibition of growth at 300 ppm [2] | pest or weed control at 500 ppm [7] | inhibition of growth at 300 ppm [3] | inhibition of growth at 300 ppm [4] | inhibition of growth at 300 ppm [6]

CCN(C)C=Nc1cc(C)cc(Nc2ccccc2)c1Cl [Compound 9, N′-(2-chloro-5-methyl-3-(phenylamino)phenyl)-N-ethyl-N-methylformimidamide]
≥ 70%: inhibition of growth at 300 ppm [1] | inhibition of growth at 300 ppm [2] | inhibition of growth at 300 ppm [3] | inhibition of growth at 300 ppm [4] | inhibition of growth at 300 ppm [5] | inhibition of growth at 300 ppm [6]

CCN(C)C=Nc1cc(F)cc(Nc2cccc(Cl)c2)c1C [Compound 37, N′-(3-((3-chlorophenyl)amino)-5-fluoro-2-methylphenyl)-N-ethyl-N-methylformimidamide]
≥ 70%: inhibition of growth at 300 ppm [1] | inhibition of growth at 300 ppm [2] | inhibition of growth at 300 ppm [3] | inhibition of growth at 300 ppm [4] | inhibition of growth at 300 ppm [5] | inhibition of growth at 300 ppm [6]

CCN(C)C=Nc1cc(C)cc(Cc2ccccc2C)c1Br [Compound 209, N′-(2-bromo-5-methyl-3-(2-methylbenzyl)phenyl)-N-ethyl-N-methylformimidamide]
≥ 70%: inhibition of growth at 300 ppm [1] | inhibition of growth at 300 ppm [2] | pest or weed control at 500 ppm [7] | inhibition of growth at 300 ppm [4] | inhibition of growth at 300 ppm [6]

CCN(C)C=Nc1cc(C)cc(N(C)c2ncc(Cl)cc2C)c1Cl [Compound 118, N′-(2-chloro-3-((5-chloro-3-methylpyridin-2-yl)(methyl)amino)-5-methylphenyl)-N-ethyl-N-methylformimidamide]
≥ 70%: inhibition of growth at 300 ppm [1] | inhibition of growth at 300 ppm [3] | inhibition of growth at 300 ppm [4] | inhibition of growth at 300 ppm [5] | inhibition of growth at 300 ppm [6]

CCN(C)C=Nc1cc(C)cc(Cc2ccccc2F)c1C [Compound 219, N-ethyl-N′-(3-(2-fluorobenzyl)-2,5-dimethylphenyl)-N-methylformimidamide]
≥ 70%: inhibition of growth at 300 ppm [1] | inhibition of growth at 300 ppm [2] | pest or weed control at 500 ppm [7] | inhibition of growth at 300 ppm [3] | inhibition of growth at 300 ppm [4] | inhibition of growth at 300 ppm [6]

CCN(C)C=Nc1cc(F)cc(N(C)c2ccccc2)c1C [Compound 11, N-ethyl-N′-(5-fluoro-2-methyl-3-(methyl(phenyl)amino)phenyl)-N-methylformimidamide]
≥ 70%: inhibition of growth at 300 ppm [1] | inhibition of growth at 300 ppm [2] | inhibition of growth at 300 ppm [4] | inhibition of growth at 300 ppm [5] | inhibition of growth at 300 ppm [6]

From patent US12545639B2, “3-substituted phenylamidine compounds, preparation and use thereof” (PI INDUSTRIES LTD., priority 2019, dated 2026)
